Data published in patent publication US11400059B2, “Treatment of pain and/or pain related symptoms associated with dysmenorrhea” (ALYRA BIOTECH PTY LTD, priority 2017, dated 2022).
“Also recorded” adds a separate entry of the source.

Key:
hNOD1 = biological target: T1, hNOD1 (Homo sapiens, UniProt Q9Y239); assay: Human TLR/NLR agonist screening, NF-κB SEAP reporter in HEK293 cells; assay type: cell-based; conditions: agonist mode, Control+ = C12-iE-DAP 1 μg/mL
T1 construct: expressed in transfected cells; host or cells: HEK293
T1 sequence (Q9Y239 1-953): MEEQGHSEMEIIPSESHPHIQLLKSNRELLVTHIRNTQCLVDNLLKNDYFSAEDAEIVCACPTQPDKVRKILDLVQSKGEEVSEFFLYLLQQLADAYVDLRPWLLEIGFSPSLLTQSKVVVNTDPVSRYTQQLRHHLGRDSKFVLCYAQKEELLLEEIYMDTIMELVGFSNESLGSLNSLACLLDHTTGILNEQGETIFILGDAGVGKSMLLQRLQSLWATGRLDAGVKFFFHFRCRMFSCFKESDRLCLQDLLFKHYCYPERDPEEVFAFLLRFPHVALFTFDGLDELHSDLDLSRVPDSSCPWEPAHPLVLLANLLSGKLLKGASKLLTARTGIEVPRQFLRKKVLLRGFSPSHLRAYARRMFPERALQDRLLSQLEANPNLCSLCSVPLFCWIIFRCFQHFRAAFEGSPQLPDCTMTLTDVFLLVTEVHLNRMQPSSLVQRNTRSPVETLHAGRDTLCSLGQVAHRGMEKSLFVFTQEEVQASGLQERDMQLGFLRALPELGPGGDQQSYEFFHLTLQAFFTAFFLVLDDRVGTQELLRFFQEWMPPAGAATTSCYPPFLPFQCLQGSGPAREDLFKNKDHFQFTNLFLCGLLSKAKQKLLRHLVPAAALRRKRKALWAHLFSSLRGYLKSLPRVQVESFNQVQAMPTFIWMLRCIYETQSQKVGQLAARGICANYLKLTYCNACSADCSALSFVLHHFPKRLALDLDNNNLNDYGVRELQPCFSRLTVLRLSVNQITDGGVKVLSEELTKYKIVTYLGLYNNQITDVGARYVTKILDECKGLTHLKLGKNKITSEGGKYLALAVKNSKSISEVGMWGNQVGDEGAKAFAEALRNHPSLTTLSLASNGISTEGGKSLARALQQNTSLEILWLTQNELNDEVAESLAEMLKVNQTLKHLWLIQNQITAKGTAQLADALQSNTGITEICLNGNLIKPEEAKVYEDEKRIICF
Protocol: (§1) Toll-Like Receptor (TLR), NOD-Like Receptor (NLR) and C-Type Lectin Receptor (CLR) stimulation were tested by assessing NF-κB activation in HEK293 cells expressing a given TLR, NLR or CLR. The activity of the test articles was tested at one concentration and compared to control ligands. These steps were performed in triplicate.
hNOD1: C12-iE-DAP at 1 μg/mL Antagonist: 100 ng/mL.
(§2) In a 96-well plate (200 μL total volume) containing the appropriate cells (50,000-75,000 cells/well), 20 μL of the test article or the positive control ligand was added to the wells. For the antagonist assay, the test article was incubated with the cells, at 37° C. with 5% CO2, for 30 minutes prior to the addition of the positive control ligand to the wells. The media added to the wells was designed for the detection of NF-κB induced SEAP expression. After a 16-24 hr incubation the optical density (OD) was read at 650 nm on a Molecular Devices SpectraMax 340PC absorbance detector.
(§3) The fold induction (ratio of average induced value to average non-induced value) results were as follows: […]

[1] = tested on: spinal astrocytes (GFAP) in the dorsal horn of the spinal cord; assay: Spinal astrocyte activation (GFAP immunofluorescence) after intrauterine LPS; assay type: in vivo, mouse (Balb/C); conditions: 3 estrous cycles
Protocol: (§4) Group 1 included twelve mice with 20 μl endotoxin-free saline introduced to the uterus on the first day of estrus and the subsequent day over 3 consecutive estrous cycles. Group 2 included twelve mice with LPS (100 μg/kg) instilled in the uterus on the first day of estrus and saline injected on the subsequent day over 3 consecutive estrous cycles. Group 3 included twelve mice with LPS (100 μg/kg) mixed with amitriptyline (20 μl of a 100 μM solution, equivalent to 28 μg/kg) instilled in the uterus on the first day of estrus, and amitriptyline alone instilled on the subsequent day over 3 consecutive estrous cycles. Group 4 included 14 mice with LPS (100 μg/kg) mixed with TAK-242 (20 μl of a 100 μM solution, equivalent to 36 μg/kg) instilled on the first day of estrus and TAK-242 alone instilled on the subsequent day over 3 consecutive estrous cycles.
(§5) The investigation involved the instillation of 20 ul of an endotoxin-free 0.9% saline solution into the uterus of all animals on the first day of estrus and the subsequent day during 3 consecutive estrous cycles. Additional agents added to the saline were included according to the groups outlined below. Where LPS is administered, this was done on only 1 day per estrous cycle.
(§6) Where amitriptyline or TAK-242 was administered, this is on both the first day of estrus and the subsequent day.
(§7) The spinal cord was assessed using immunohistochemistry techniques across levels T10, T11, T12, T13, L1, L2, L3, L4, L5, L6, S1 and S2 for Groups 1 and 2, where T represents the thoracic segment of the spinal cord, L represents the lumbar segment of the spinal cord and S represents the sacral segment of the spinal cord.
(§8) The spinal cord was assessed using immunohistochemistry techniques across levels T12, T13, L1, L2, L3, L4, L5, L6, S and S2 for Groups 3 and 4, where T represents the thoracic segment of the spinal cord, L represents the lumbar segment of the spinal cord and S represents the sacral segment of the spinal cord. […]

[2] = tested on: spinal microglia (Iba1) in the dorsal horn of the spinal cord; assay: Spinal microglial activation (Iba1 immunofluorescence) after intrauterine LPS; assay type: in vivo, mouse (Balb/C); conditions: 3 estrous cycles
Protocol: as §4, §5, §6, §7, §8

[3] = tested on: spinal glial cells in the dorsal horn of the spinal cord; assay: Spinal glial activation (astrocytes and microglia) after intrauterine LPS, overall statements; assay type: in vivo, mouse (Balb/C)
Description: In the model, we investigated whether intrauterine LPS administration would cause an activation of the innate immune system in the uterus, replicating the inflammation often seen in dysmenorrhea, with possible association with pain. As inflammation is intrinsically linked with pain, we investigated whether activation of the innate immune system in the uterus would induce activation of spinal glial cells (central nervous system immune cells) in the dorsal horn of the spinal cord. Spinal glial cells include astrocytes and microglia. Activation of spinal glial cells was assessed using immunoflourescent staining with GFAP (astrocytes) or Iba1 (microglia). We then investigated if spinal glial activation is attenuated by the innate immune system blocking drugs amitriptyline and TAK-242.
as §4
Determination of spinal glial response was then assessed using immunofluorescence to confirm the validity of the experimental model.
Determination of the ability of TLR4 antagonists to block the activation of spinal astrocytes and microglia induced by intra-uterine instillation of LPS was assessed.
An assessment of glial activation was made using immunochemistry techniques including Ionized calcium binding adaptor molecule 1 (Iba1) expression and glial fibrillary-associated protein (GFAP) variability in the dorsal horn. Iba1 expression is a marker for microglial activation, and GFAP is a marker for astrocyte activation. The spinal cord levels chosen are consistent with the level of spinal afferent neurons associated with the pelvis, including the uterus in the mouse.

hTLR9 = biological target: T2, hTLR9 (Homo sapiens, UniProt Q9NR96); assay: Human TLR/NLR agonist screening, NF-κB SEAP reporter in HEK293 cells; assay type: cell-based; conditions: agonist mode, Control+ = CpG ODN 2006 1 μg/mL
T2 construct: expressed in transfected cells; host or cells: HEK293
T2 sequence (Q9NR96 26-1032): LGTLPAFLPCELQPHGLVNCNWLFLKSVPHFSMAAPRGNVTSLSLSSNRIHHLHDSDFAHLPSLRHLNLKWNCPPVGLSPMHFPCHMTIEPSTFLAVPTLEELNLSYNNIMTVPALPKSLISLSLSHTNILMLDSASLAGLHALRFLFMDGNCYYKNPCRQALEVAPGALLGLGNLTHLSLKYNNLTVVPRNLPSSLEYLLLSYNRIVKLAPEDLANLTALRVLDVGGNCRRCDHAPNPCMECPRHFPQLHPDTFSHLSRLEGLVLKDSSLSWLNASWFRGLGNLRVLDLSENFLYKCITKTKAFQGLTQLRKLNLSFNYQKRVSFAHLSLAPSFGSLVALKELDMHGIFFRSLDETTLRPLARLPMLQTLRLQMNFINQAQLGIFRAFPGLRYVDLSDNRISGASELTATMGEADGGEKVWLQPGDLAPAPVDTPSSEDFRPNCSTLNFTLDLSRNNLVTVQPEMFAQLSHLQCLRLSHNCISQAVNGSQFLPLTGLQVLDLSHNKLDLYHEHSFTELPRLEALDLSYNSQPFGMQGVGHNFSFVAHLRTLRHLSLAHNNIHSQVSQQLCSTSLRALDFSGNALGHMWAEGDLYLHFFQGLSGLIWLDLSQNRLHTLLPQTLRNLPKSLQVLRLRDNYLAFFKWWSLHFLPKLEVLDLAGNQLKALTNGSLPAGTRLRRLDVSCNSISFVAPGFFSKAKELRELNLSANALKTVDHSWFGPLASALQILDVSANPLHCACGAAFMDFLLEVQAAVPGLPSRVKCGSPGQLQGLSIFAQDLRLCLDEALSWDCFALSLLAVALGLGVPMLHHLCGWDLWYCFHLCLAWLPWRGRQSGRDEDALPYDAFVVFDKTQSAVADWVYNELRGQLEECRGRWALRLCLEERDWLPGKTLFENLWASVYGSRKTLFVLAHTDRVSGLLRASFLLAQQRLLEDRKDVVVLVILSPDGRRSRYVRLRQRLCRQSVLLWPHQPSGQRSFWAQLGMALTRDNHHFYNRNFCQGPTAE
Protocol: as §1
hTLR9: CpG ODN 2006 at 1 μg/mL Antagonist: 500 ng/mL.
as §2, §3

[4] = tested on: mice with intrauterine LPS; assay: Facial Grimace Scale 24 hours after final LPS stimulation; assay type: in vivo, mouse (Balb/C); conditions: intrauterine LPS vs saline, 24 hours after final LPS stimulation
Protocol: as §4
24 hours following the final LPS stimulation mice were subjected to assessment for the presence or absence of pain. This was assessed using the following tests:
Facial Grimace Scale: Photos of mice in their home cage will be taken, to score their facial Grimace and this was quantified and compared between groups. For further information see: http://www.nature.com/nmeth/journal/v7/n6/full/nmeth.1455.html.

hTLR5 = biological target: T3, hTLR5 (Homo sapiens, UniProt O60602); assay: Human TLR/NLR agonist screening, NF-κB SEAP reporter in HEK293 cells; assay type: cell-based; conditions: agonist mode, Control+ = S. typhimurium flagellin 100 ng/mL
T3 construct: expressed in transfected cells; host or cells: HEK293
T3 sequence (O60602 21-858): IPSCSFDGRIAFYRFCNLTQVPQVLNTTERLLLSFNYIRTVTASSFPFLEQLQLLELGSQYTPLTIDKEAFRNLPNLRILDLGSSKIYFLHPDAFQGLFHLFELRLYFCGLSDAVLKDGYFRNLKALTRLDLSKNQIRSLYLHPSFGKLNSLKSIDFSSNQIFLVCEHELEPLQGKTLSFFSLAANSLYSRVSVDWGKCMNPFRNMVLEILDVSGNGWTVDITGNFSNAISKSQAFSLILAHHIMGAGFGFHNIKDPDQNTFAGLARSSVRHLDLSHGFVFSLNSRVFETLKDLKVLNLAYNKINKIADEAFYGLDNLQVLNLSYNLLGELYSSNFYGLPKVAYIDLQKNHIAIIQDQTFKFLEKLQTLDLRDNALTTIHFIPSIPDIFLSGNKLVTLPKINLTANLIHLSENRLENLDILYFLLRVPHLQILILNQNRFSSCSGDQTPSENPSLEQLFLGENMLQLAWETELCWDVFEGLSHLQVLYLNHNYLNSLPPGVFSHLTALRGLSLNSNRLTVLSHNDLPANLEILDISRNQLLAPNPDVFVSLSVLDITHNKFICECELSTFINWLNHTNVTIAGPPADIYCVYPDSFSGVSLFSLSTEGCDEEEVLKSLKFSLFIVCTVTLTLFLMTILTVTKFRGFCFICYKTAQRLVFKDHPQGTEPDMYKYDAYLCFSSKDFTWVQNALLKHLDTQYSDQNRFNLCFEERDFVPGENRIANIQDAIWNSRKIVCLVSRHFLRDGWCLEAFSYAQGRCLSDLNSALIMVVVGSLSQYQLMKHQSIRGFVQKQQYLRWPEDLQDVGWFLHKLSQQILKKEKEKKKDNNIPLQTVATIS
Protocol: as §1
hTLR5: S. typhimurium flagellin at 100 ng/mL Antagonist: 50 ng/mL.
as §2, §3

[5] = intrauterine, mixed with LPS 100 μg/kg on first day of estrus and alone the subsequent day, amitriptyline 28 μg/kg, TAK-242 36 μg/kg, vs LPS

CCCCCCCCCCCC(=O)N[C@H](CCC(=O)NC(CCCC(N)C(=O)O)C(=O)O)C(=O)O (some centres unmarked) [C12-iE-DAP]
Fold induction (ratio of average induced value to average non-induced value) (hNOD1): 20

CCOC(=O)C1=CCCC[C@H]1S(=O)(=O)Nc1ccc(F)cc1Cl [TAK-242]
astrocytic reactivity (GFAP staining), impact of intrauterine LPS at multiple levels of the spinal cord [1, 5]: reduced astrocytic reactivity to below basal levels
microglial reactivity (Iba1 staining), impact of intrauterine LPS at multiple levels of the spinal cord [2, 5]: reduced microglia reactivity to basal levels
spinal glial activation induced by intrauterine LPS ([3]; intrauterine co-administration with LPS): prevented; also recorded: block spinal glial activation
dose effective at reducing spinal glial activation ([3]; mouse model, intrauterine administration): 0.036 mg/kg

CpG ODN 2006
Fold induction (ratio of average induced value to average non-induced value) (hTLR9): 18

lipopolysaccharide [LPS]
GFAP astrocyte staining ([1]; intrauterine LPS 100 μg/kg once per cycle, vs saline controls): increase in GFAP astrocyte staining through widespread levels of the spinal cord; also recorded: substantial increase in GFAP astrocyte staining
Iba1 microglial staining ([2]; intrauterine LPS 100 μg/kg once per cycle, vs saline): localised increase in Iba1 microglial staining
activation of spinal glial cells (astrocytes and microglia) ([3]; intra-uterine LPS): induced activation of spinal astrocytes and microglia; also recorded: activate spinal glial cells
presentation of Grimace behaviours [4]: significant increase in the presentation of Grimace behaviours

B1: S. typhimurium flagellin: hTLR5 control ligand (protein, UniProt P06179 2-495, looked up)
Flagellin: AQVINTNSLSLLTQNNLNKSQSALGTAIERLSSGLRINSAKDDAAGQAIANRFTANIKGLTQASRNANDGISIAQTTEGALNEINNNLQRVRELAVQSANSTNSQSDLDSIQAEITQRLNEIDRVSGQTQFNGVKVLAQDNTLTIQVGANDGETIDIDLKQINSQTLGLDTLNVQQKYKVSDTAATVTGYADTTIALDNSTFKASATGLGGTDQKIDGDLKFDDTTGKYYAKVTVTGGTGKDGYYEVSVDKTNGEVTLAGGATSPLTGGLPATATEDVKNVQVANADLTEAKAALTAAGVTGTASVVKMSYTDNNGKTIDGGLAVKVGDDYYSATQNKDGSISINTTKYTADDGTSKTALNKLGGADGKTEVVSIGGKTYAASKAEGHNFKAQPDLAEAAATTTENPLQKIDAALAQVDTLRSDLGAVQNRFNSAITNLGNTVNNLTSARSRIEDSDYATEVSNMSRAQILQQAGTSVLAQANQVPQNVLSLLR
Fold induction (ratio of average induced value to average non-induced value) (hTLR5): 18
